{"source": "ChEMBL document CHEMBL1142315", "about": "“In silico screening and biological evaluation of inhibitors of Src-SH3 domain interaction with a proline-rich ligand” (Bioorg Med Chem Lett, 2008)", "key": {"[1]": {"biological_target": "Proto-oncogene tyrosine-protein kinase Src (Homo sapiens) (UniProt P12931)", "sequence (P12931 2-536 limits assumed)": "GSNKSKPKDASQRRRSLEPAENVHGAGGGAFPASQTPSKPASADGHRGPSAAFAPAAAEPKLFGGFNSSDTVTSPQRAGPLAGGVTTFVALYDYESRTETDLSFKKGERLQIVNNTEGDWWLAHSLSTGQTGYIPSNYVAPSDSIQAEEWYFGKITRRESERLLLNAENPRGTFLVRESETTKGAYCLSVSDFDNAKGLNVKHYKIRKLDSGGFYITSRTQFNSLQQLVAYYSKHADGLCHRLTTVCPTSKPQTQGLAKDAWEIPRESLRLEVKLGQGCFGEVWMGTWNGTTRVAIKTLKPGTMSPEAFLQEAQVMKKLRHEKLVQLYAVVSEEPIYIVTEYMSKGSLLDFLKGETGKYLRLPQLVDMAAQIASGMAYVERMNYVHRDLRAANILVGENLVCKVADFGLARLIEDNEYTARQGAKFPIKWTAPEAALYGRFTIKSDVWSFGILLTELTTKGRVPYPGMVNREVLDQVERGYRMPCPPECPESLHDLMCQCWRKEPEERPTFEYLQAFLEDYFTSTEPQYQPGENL", "experiment": "Inhibition of interaction between human Src-SH3 domain and PRP2 at 800 uM by fluorescence polarization technique"}, "[2]": {"biological_target": "Proto-oncogene tyrosine-protein kinase Src (Homo sapiens) (UniProt P12931)", "experiment": "Inhibition of interaction between human Src-SH3 domain and PRP2 at 100 uM by fluorescence polarization technique"}}, "note": "Calls of active or inactive are those of the source. The calls are words filed in the database; no cut-off is given here.", "data": [{"smiles": "COc1ccc(NCCNc2cc(C)nc3c2ccc2ccccc23)cc1OC", "values": [{"measurement": "Activity", "setting": "[1]", "value": "Active"}, {"measurement": "inhibition", "setting": "[2]", "value": 22, "unit": "%"}]}, {"smiles": "Cc1cc(NCCNc2ccc3c(c2)OCCO3)c2ccc3ccccc3c2n1", "values": [{"measurement": "Activity", "setting": "[1]", "value": "Active"}]}]}
